{"source": "paper PMC4332533", "about": "(Neuropharmacology, 2014)", "key": {"[1]": {"molecular_target": "α3S125Cβ2Q39C receptor (Rattus norvegicus, UniProt P04757+P12390, Q65C/S152C)", "sequence (P04757 26-499 S152C)": "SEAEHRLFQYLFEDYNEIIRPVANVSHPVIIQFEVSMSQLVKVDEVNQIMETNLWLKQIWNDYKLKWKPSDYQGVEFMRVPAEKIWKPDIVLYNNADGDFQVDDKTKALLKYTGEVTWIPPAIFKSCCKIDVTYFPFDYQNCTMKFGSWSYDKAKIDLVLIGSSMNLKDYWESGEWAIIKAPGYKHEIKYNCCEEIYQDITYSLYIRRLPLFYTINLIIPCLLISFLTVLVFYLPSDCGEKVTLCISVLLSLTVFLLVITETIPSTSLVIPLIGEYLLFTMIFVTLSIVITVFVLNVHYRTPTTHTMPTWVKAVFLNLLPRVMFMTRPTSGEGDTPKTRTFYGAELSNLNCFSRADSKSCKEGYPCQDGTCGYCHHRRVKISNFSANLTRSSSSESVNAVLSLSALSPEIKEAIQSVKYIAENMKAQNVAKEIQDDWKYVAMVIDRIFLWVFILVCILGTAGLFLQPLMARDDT", "sequence (P12390 25-500 Q65C)": "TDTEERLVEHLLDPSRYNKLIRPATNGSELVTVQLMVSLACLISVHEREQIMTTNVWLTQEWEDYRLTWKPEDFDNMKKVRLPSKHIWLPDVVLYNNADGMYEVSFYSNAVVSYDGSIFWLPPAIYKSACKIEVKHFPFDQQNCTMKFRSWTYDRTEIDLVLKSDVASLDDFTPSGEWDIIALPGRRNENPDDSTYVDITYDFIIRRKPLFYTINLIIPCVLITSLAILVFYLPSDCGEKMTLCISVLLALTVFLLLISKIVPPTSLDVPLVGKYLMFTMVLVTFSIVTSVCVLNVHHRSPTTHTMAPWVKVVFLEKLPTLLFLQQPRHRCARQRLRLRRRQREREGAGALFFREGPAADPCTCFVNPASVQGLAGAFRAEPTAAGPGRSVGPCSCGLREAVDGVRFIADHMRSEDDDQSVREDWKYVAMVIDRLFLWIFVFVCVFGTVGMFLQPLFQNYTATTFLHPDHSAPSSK", "assay": "Macroscopic evoked currents, two-electrode voltage-clamp, Xenopus laevis oocytes"}, "[2]": {"molecular_target": "α3S125Yβ2A127Y receptor (Rattus norvegicus, UniProt P04757+P12390, A153Y/S152Y)", "sequence (P04757 26-499 S152Y)": "as the sequence (P04757 26-499 S152C) above, with C127Y counted along it", "sequence (P12390 25-500 A153Y)": "as the sequence (P12390 25-500 Q65C) above, with C41Q, A129Y counted along it", "assay": "Macroscopic evoked currents, two-electrode voltage-clamp, Xenopus laevis oocytes", "assay_type": "cell-based"}, "[3]": {"molecular_target": "α3Q37Cβ2 receptor (Rattus norvegicus, UniProt P04757+P12390, Q64C)", "sequence (P04757 26-499 Q64C)": "as the sequence (P04757 26-499 S152C) above, with Q39C, C127S counted along it", "sequence (P12390 25-500)": "as the sequence (P12390 25-500 Q65C) above, with C41Q counted along it", "assay": "Macroscopic evoked currents, two-electrode voltage-clamp, Xenopus laevis oocytes", "assay_type": "cell-based", "conditions": "mutation-modulator Ɽ from EC50s vs wild type; 10 µM Mor"}, "[4]": {"molecular_target": "α3β2R46V receptor (Rattus norvegicus, UniProt P04757+P12390, R72V)", "sequence (P04757 26-499)": "as the sequence (P04757 26-499 S152C) above, with C127S counted along it", "sequence (P12390 25-500 R72V)": "as the sequence (P12390 25-500 Q65C) above, with C41Q, R48V counted along it", "assay": "Macroscopic evoked currents, two-electrode voltage-clamp, Xenopus laevis oocytes", "assay_type": "cell-based", "conditions": "Mor alone; relative to saturating ACh; no Hill fit possible"}, "[5]": {"molecular_target": "T1, wild type α3β2 receptor (Rattus norvegicus, UniProt P04757+P12390)", "T1 sequence (P04757 26-499)": "as the sequence (P04757 26-499 S152C) above, with C127S counted along it", "T1 sequence (P12390 25-500)": "as the sequence (P12390 25-500 Q65C) above, with C41Q counted along it", "assay": "Macroscopic evoked currents, two-electrode voltage-clamp, Xenopus laevis oocytes", "assay_type": "cell-based", "conditions": "10 µM Mor; 300 µM ACh; control measurement before oxidation (Fig. 2)"}, "[6]": {"molecular_target": "α3Y168Cβ2D190C receptor (Rattus norvegicus, UniProt P04757+P12390, D216C/Y195C)", "sequence (P04757 26-499 Y195C)": "as the sequence (P04757 26-499 S152C) above, with C127S, Y170C counted along it", "sequence (P12390 25-500 D216C)": "as the sequence (P12390 25-500 Q65C) above, with C41Q, D192C counted along it", "assay": "Macroscopic evoked currents, two-electrode voltage-clamp, Xenopus laevis oocytes", "assay_type": "cell-based"}, "[7]": {"molecular_target": "α3E173Aβ2R46V receptor (Rattus norvegicus, UniProt P04757+P12390, E200A/R46V)", "sequence (P04757 26-499 E200A)": "as the sequence (P04757 26-499 S152C) above, with C127S, E175A counted along it", "sequence (P12390 25-500 R46V)": "as the sequence (P12390 25-500 Q65C) above, with R22V, C41Q counted along it", "assay": "Macroscopic evoked currents, two-electrode voltage-clamp, Xenopus laevis oocytes", "assay_type": "cell-based", "conditions": "mutation-modulator Ɽ from EC50s vs wild type; 10 µM Mor"}, "[8]": {"molecular_target": "α3S125Yβ2 receptor (Rattus norvegicus, UniProt P04757+P12390, S152Y)", "sequence (P04757 26-499 S152Y)": "as the sequence (P04757 26-499 S152C) above, with C127Y counted along it", "sequence (P12390 25-500, stated change not applied)": "as the sequence (P12390 25-500 Q65C) above, with C41Q counted along it", "assay": "Macroscopic evoked currents, two-electrode voltage-clamp, Xenopus laevis oocytes"}, "[9]": {"molecular_target": "T1, wild type α3β2 receptor", "conditions": "Mor alone, cited from earlier work"}, "[10]": {"molecular_target": "α3E173Aβ2 receptor (Rattus norvegicus, UniProt P04757+P12390, E200A)", "sequence (P04757 26-499 E200A)": "as the sequence (P04757 26-499 S152C) above, with C127S, E175A counted along it", "sequence (P12390 25-500)": "as the sequence (P12390 25-500 Q65C) above, with C41Q counted along it", "assay": "Macroscopic evoked currents, two-electrode voltage-clamp, Xenopus laevis oocytes", "assay_type": "cell-based"}, "[11]": {"molecular_target": "α3S125Yβ2W149A receptor (Rattus norvegicus, UniProt P04757+P12390, S152Y/W175A)", "sequence (P04757 26-499 S152Y)": "as the sequence (P04757 26-499 S152C) above, with C127Y counted along it", "sequence (P12390 25-500 W175A)": "as the sequence (P12390 25-500 Q65C) above, with C41Q, W151A counted along it", "assay": "Macroscopic evoked currents, two-electrode voltage-clamp, Xenopus laevis oocytes", "assay_type": "cell-based"}, "[12]": {"molecular_target": "α3β2Q39C receptor (Rattus norvegicus, UniProt P04757+P12390, Q65C)", "sequence (P04757 26-499)": "as the sequence (P04757 26-499 S152C) above, with C127S counted along it", "sequence (P12390 25-500 Q65C)": "as the sequence (P12390 25-500 Q65C) above", "assay": "Macroscopic evoked currents, two-electrode voltage-clamp, Xenopus laevis oocytes", "assay_type": "cell-based", "conditions": "mutation-modulator Ɽ from EC50s vs wild type; 10 µM Mor"}, "[13]": {"molecular_target": "α3β2D190Q receptor (Rattus norvegicus, UniProt P04757+P12390, D216Q)", "sequence (P04757 26-499)": "as the sequence (P04757 26-499 S152C) above, with C127S counted along it", "sequence (P12390 25-500 D216Q)": "as the sequence (P12390 25-500 Q65C) above, with C41Q, D192Q counted along it", "assay": "Macroscopic evoked currents, two-electrode voltage-clamp, Xenopus laevis oocytes", "assay_type": "cell-based", "conditions": "mutation-modulator Ɽ from EC50s vs wild type; 10 µM Mor"}, "[14]": {"molecular_target": "α3Y168Fβ2D190Q receptor (Rattus norvegicus, UniProt P04757+P12390, D216Q/Y195F)", "sequence (P04757 26-499 Y195F)": "as the sequence (P04757 26-499 S152C) above, with C127S, Y170F counted along it", "sequence (P12390 25-500 D216Q)": "as the sequence (P12390 25-500 Q65C) above, with C41Q, D192Q counted along it", "assay": "Macroscopic evoked currents, two-electrode voltage-clamp, Xenopus laevis oocytes", "assay_type": "cell-based", "conditions": "mutation-modulator Ɽ from EC50s vs wild type; 10 µM Mor"}, "[15]": {"molecular_target": "α3Y168Fβ2 receptor (Rattus norvegicus, UniProt P04757+P12390, Y195F)", "sequence (P04757 26-499 Y195F)": "as the sequence (P04757 26-499 S152C) above, with C127S, Y170F counted along it", "sequence (P12390 25-500)": "as the sequence (P12390 25-500 Q65C) above, with C41Q counted along it", "assay": "Macroscopic evoked currents, two-electrode voltage-clamp, Xenopus laevis oocytes", "assay_type": "cell-based", "conditions": "ACh + 10 µM Mor EC50 comparison; Table 1"}, "[16]": {"molecular_target": "α3β2D190C receptor (Rattus norvegicus, UniProt P04757+P12390, D216C)", "sequence (P04757 26-499)": "as the sequence (P04757 26-499 S152C) above, with C127S counted along it", "sequence (P12390 25-500 D216C)": "as the sequence (P12390 25-500 Q65C) above, with C41Q, D192C counted along it", "assay": "Macroscopic evoked currents, two-electrode voltage-clamp, Xenopus laevis oocytes", "assay_type": "cell-based"}, "[17]": {"molecular_target": "α3S125Cβ2 receptor (Rattus norvegicus, UniProt P04757+P12390, S152C)", "sequence (P04757 26-499 S152C)": "as the sequence (P04757 26-499 S152C) above", "sequence (P12390 25-500, stated change not applied)": "as the sequence (P12390 25-500 Q65C) above, with C41Q counted along it", "assay": "Macroscopic evoked currents, two-electrode voltage-clamp, Xenopus laevis oocytes", "assay_type": "cell-based"}, "[18]": {"molecular_target": "α3β2A127Y receptor (Rattus norvegicus, UniProt P04757+P12390, A153Y)", "sequence (P04757 26-499)": "as the sequence (P04757 26-499 S152C) above, with C127S counted along it", "sequence (P12390 25-500 A153Y)": "as the sequence (P12390 25-500 Q65C) above, with C41Q, A129Y counted along it", "assay": "Macroscopic evoked currents, two-electrode voltage-clamp, Xenopus laevis oocytes", "assay_type": "cell-based"}, "[19]": {"molecular_target": "α3Q37Cβ2A127C receptor (Rattus norvegicus, UniProt P04757+P12390, A153C/Q64C)", "sequence (P04757 26-499 Q64C)": "as the sequence (P04757 26-499 S152C) above, with Q39C, C127S counted along it", "sequence (P12390 25-500 A153C)": "as the sequence (P12390 25-500 Q65C) above, with C41Q, A129C counted along it", "assay": "Macroscopic evoked currents, two-electrode voltage-clamp, Xenopus laevis oocytes", "assay_type": "cell-based", "conditions": "mutation-modulator Ɽ from EC50s vs wild type; 10 µM Mor"}, "[20]": {"test_system": "α3β2W149A receptor", "conditions": "Mor alone; relative to saturating ACh; no Hill fit possible; cited from earlier work"}, "[21]": {"molecular_target": "α3β2A127C receptor (Rattus norvegicus, UniProt P04757+P12390, A153C)", "sequence (P04757 26-499)": "as the sequence (P04757 26-499 S152C) above, with C127S counted along it", "sequence (P12390 25-500 A153C)": "as the sequence (P12390 25-500 Q65C) above, with C41Q, A129C counted along it", "assay": "Macroscopic evoked currents, two-electrode voltage-clamp, Xenopus laevis oocytes", "assay_type": "cell-based", "conditions": "mutation-modulator Ɽ from EC50s vs wild type; 10 µM Mor"}, "[22]": {"conditions": "Mor alone, relative to saturating ACh"}, "[23]": {"conditions": "mutation-modulator Ɽ from EC50s vs wild type, 10 µM Mor"}, "[24]": {"conditions": "10 µM Mor, saturating nicotine, 10 µM epibatidine (Fig. 8)"}}, "note": "Several values for one entry are separate records, joined by “and”; a condition that tells them apart may be missing. Equal values may be shown once.", "data": [{"smiles": "Cc1ccsc1C=CC1=NCCCN1C.O=C(O)C(O)C(O)C(=O)O", "note": "[Mor, 1,4,5,6-tetrahydro-1-methyl-2-(2-[3-methyl-2-thienyl]ethenyl)pyrimidine, tartrate salt]", "values": [{"measurement": "EC50", "setting": "[1]", "value": "0.53 ± 0.21", "unit": "µM"}, {"measurement": "potentiation (IACh+Mor/IACh)", "setting": "[1]; 10 µM Mor, 300 µM ACh, control measurement before oxidation (Fig. 2)", "value": "greater than 2.5 fold"}, {"measurement": "nH (Mor Activation)", "setting": "[1]; Mor alone, Hill fit", "value": "0.92 ± 0.30 [4–8]"}, {"measurement": "Emax (Mor Activation)", "setting": "[1]; [22]", "value": "1.00 ± 0.14"}, {"measurement": "R(mut-Mor)", "setting": "[1]; [23]", "value": 4.5}, {"measurement": "EC50", "setting": "[2]", "value": "1.9 ± 0.2", "unit": "µM"}, {"measurement": "effect on ACh responses", "setting": "[2]; 10 µM Mor, 300 µM ACh (Fig. 8)", "value": "modestly potentiated"}, {"measurement": "effect on responses evoked by nicotine and epibatidine", "setting": "[2]; [24]", "value": "inhibited"}, {"measurement": "nH (Mor Activation)", "setting": "[2]; Mor alone, Hill fit", "value": "3.18 ± 0.63"}, {"measurement": "Emax (Mor Activation)", "setting": "[2]; [22]", "value": "0.16 ± 0.01 [3]"}, {"measurement": "R(mut-Mor)", "setting": "[2]; [23]", "value": 1.2}, {"measurement": "Ω (Mor alone activation)", "setting": "[2]; thermodynamic cycle α3S125Y-β2A127Y from Mor alone EC50s", "value": 3.4}, {"measurement": "R(mut-Mor)", "setting": "[3]", "value": 5.3}, {"measurement": "Emax (Mor Activation)", "setting": "[4]", "value": "0.03 ± 0.01 [7]"}, {"measurement": "potentiation (IACh+Mor/IACh)", "setting": "[5]", "value": "greater than 2.5 fold"}, {"measurement": "potentiation (IACh+Mor/IACh)", "setting": "[6]; 10 µM Mor, 1 mM ACh, control measurement before oxidation (Fig. 2)", "value": "greater than 2.5 fold"}, {"measurement": "R(mut-Mor)", "setting": "[6]; Ɽ=EC50(WT,A)·EC50(mut,A+M)/EC50(WT,A+M)·EC50(mut,A), M = 10 µM Mor", "value": 0.52}, {"measurement": "R(mut-Mor)", "setting": "[7]", "value": 9.0}, {"measurement": "EC50", "setting": "[8]", "value": "2.3 ± 0.7", "unit": "µM"}, {"measurement": "response to Mor alone", "setting": "[8]; 10 µM Mor alone (Fig. 8, Fig. 5A)", "value": "full agonist"}, {"measurement": "effect on ACh responses", "setting": "[8]; 10 µM Mor, 300 µM ACh (Fig. 8)", "value": "modestly potentiated"}, {"measurement": "effect on responses evoked by nicotine and epibatidine", "setting": "[8]; [24]", "value": "inhibited"}, {"measurement": "decrease in EC50 for Mor modulation vs wild type", "setting": "[8]; ACh + 10 µM Mor EC50 comparison", "value": 1000, "unit": "fold"}, {"measurement": "Emax (Mor Activation)", "setting": "[8]; [22]", "value": "1.7 and 1.69 ± 0.27"}, {"measurement": "R(mut-Mor)", "setting": "[8]; [23]", "value": 0.0076}, {"measurement": "nH (Mor Activation)", "setting": "[9]; Hill fit", "value": "3.1 ± 1.6"}, {"measurement": "Emax (Mor Activation)", "setting": "[9]; relative to saturating ACh", "value": "0.2 and 0.20 ± 0.04"}, {"measurement": "EC50", "setting": "[9]; read-out: EC50 (Mor Activation), Hill fit", "value": "20 ± 2", "unit": "µM"}, {"measurement": "Emax (Mor Activation)", "setting": "[10]; Mor alone, relative to saturating ACh, no Hill fit possible", "value": "0.16 ± 0.01 [4]"}, {"measurement": "R(mut-Mor)", "setting": "[10]; [23]", "value": 1.4}, {"measurement": "EC50", "setting": "[11]", "value": "25 ± 9", "unit": "µM"}, {"measurement": "nH (Mor Activation)", "setting": "[11]; Mor alone, Hill fit", "value": "1.01 ± 0.29 [5–6]"}, {"measurement": "Emax (Mor Activation)", "setting": "[11]; [22]", "value": "0.21 ± 0.02"}, {"measurement": "R(mut-Mor)", "setting": "[11]; [23]", "value": 7.2}, {"measurement": "R(mut-Mor)", "setting": "[12]", "value": 0.10}, {"measurement": "R(mut-Mor)", "setting": "[13]", "value": 7.1}, {"measurement": "R(mut-Mor)", "setting": "[14]", "value": 0.57}, {"measurement": "decrease in EC50 for Mor modulation vs wild type", "setting": "[15]", "value": 70, "unit": "fold"}, {"measurement": "potentiation of ACh-evoked currents", "setting": "[16]; 10 µM modulator (Fig. 3B)", "value": "eliminated"}, {"measurement": "R(mut-Mor)", "setting": "[16]; [23]", "value": 10}, {"measurement": "EC50", "setting": "[17]", "value": "92 ± 33", "unit": "µM"}, {"measurement": "nH (Mor Activation)", "setting": "[17]; Mor alone, Hill fit", "value": "0.54 ± 0.11 [4]"}, {"measurement": "Emax (Mor Activation)", "setting": "[17]; [22]", "value": "0.028 ± 0.006"}, {"measurement": "R(mut-Mor)", "setting": "[17]; [23]", "value": 1.3}, {"measurement": "EC50", "setting": "[18]", "value": "4.8 ± 2.4", "unit": "µM"}, {"measurement": "response to Mor alone", "setting": "[18]; 10 µM Mor alone (Fig. 8)", "value": "nearly negligible current"}, {"measurement": "effect on ACh responses", "setting": "[18]; 10 µM Mor, 300 µM ACh (Fig. 8)", "value": "modestly potentiated"}, {"measurement": "effect on responses evoked by nicotine and epibatidine", "setting": "[18]; [24]", "value": "inhibited"}, {"measurement": "nH (Mor Activation)", "setting": "[18]; Mor alone, Hill fit", "value": "1.08 ± 0.40"}, {"measurement": "Emax (Mor Activation)", "setting": "[18]; [22]", "value": "0.05 ± 0.01 [5]"}, {"measurement": "R(mut-Mor)", "setting": "[18]; [23]", "value": 9.4}, {"measurement": "R(mut-Mor)", "setting": "[19]", "value": 1.7}, {"measurement": "Emax (Mor Activation)", "setting": "[20]", "value": "0.015 ± 0.004 [3]"}, {"measurement": "R(mut-Mor)", "setting": "[21]", "value": 3.3}]}]}
